The target of one test is BRD4 (Homo sapiens, UniProt O60885). As to conditions: BT-474 cells (HER2-positive), 24 hours treatment, various concentrations up to 1 μM, western blot.
Another test has as its system BRD2, BRD3, and BRD4. Particulars: read-out: EC50, inhibitor of BRD2, BRD3, and BRD4; cited from earlier work.

pEC50: −log10 of the molar value.

What is called pEC50 is the EC50 on a negative log10 scale, so that one unit is a factor of ten.

On to `Cc1sc2c(c1C)C(c1ccc(Cl)cc1)=N[C@@H](CC(=O)Nc1ccc(OCCOCCNCCOCCNc3cccc4c3C(=O)N(C3CCC(=O)NC3=O)C4=O)cc1)c1nnc(C)n1-2` (stereo partly drawn) [Compound 5], for which the BRD4 protein degradation result on BRD4 is given as “as effective as ARV-825”.
On the same count and under the same terms, next, `Cc1sc2c(c1C)C(c1ccc(Cl)cc1)=N[C@@H](CC(=O)Nc1ccc(OCCOCCN(CCOCCNc3cccc4c3C(=O)N(C3CCC(=O)NC3=O)C4=O)C(=O)OCc3ccc(NC(=O)[C@H](CCCNC(N)=O)NC(=O)[C@@H](NC(=O)CCCCCN4C(=O)C=CC4=O)C(C)C)cc3)cc1)c1nnc(C)n1-2` (stereo partly drawn) [Compound 7]: “cannot degrade BRD4 protein”.
Consider `Cc1sc2c(c1C)C(c1ccc(Cl)cc1)=N[C@@H](CC(=O)Nc1ccc(O)cc1)c1nnc(C)n1-2` [OTX015], for which, in the test with BRD2, BRD3, and BRD4, the pEC50 was 7.72 to 8.00.

These data come from patent US20210015942A1, “ANTIBODY PROTAC CONJUGATES” (Development Center for Biotechnology, priority 2018, published 2021).
